How the values were obtained:
[1] = tested on: P388; experiment: Antitumor activity against mouse P388 cells allografted in mouse assessed as average survival time at 2.9 mg/kg, ip relative to untreated control; type: functional; conditions: route intraperitoneal
[2] = tested on: Mus musculus; experiment: Toxicity in mouse allografted with mouse P388 cells at 2.9 mg/kg, ip; type: organism-based; set-up: dose 2.9 mg/kg, route intraperitoneal; conditions: in vivo
[3] = tested on: P388; experiment: Antitumor activity against mouse P388 cells allografted in ip dosed mouse assessed as optimal dose; type: functional
[4] = tested on: P388; experiment: Antitumor activity against mouse P388 cells allografted in mouse assessed as average survival time at 6.6 mg/kg, ip relative to untreated control; type: functional; conditions: route intraperitoneal
[5] = tested on: Mus musculus; experiment: Toxicity in mouse allografted with mouse P388 cells at 6.6 mg/kg, ip; type: organism-based; set-up: dose 6.6 mg/kg, route intraperitoneal; conditions: in vivo
[6] = tested on: L1210; experiment: Antitumor activity against mouse L1210 cells allografted in mouse assessed as average survival time at 10 mg/kg, ip relative to untreated control; type: functional; conditions: route intraperitoneal
[7] = tested on: L1210; experiment: Antitumor activity against mouse L1210 cells allografted in mouse assessed as average survival time at 4.4 mg/kg, ip relative to untreated control; type: functional; conditions: route intraperitoneal
[8] = tested on: L1210; experiment: Antitumor activity against mouse L1210 cells allografted in mouse assessed as average survival time at 6.6 mg/kg, ip relative to untreated control; type: functional; conditions: route intraperitoneal
[9] = tested on: P388; experiment: Antitumor activity against mouse P388 cells allografted in mouse assessed as average survival time at 20 mg/kg, ip relative to untreated control; type: functional; conditions: route intraperitoneal
[10] = tested on: Mus musculus; experiment: Toxicity in mouse allografted with mouse P388 cells at 20 mg/kg, ip; type: organism-based; set-up: dose 20 mg/kg, route intraperitoneal; conditions: in vivo
[11] = tested on: L1210; experiment: Antitumor activity against mouse L1210 cells allografted in mouse assessed as average survival time at 22.5 mg/kg, ip relative to untreated control; type: functional; conditions: route intraperitoneal
[12] = tested on: L1210; experiment: Antitumor activity against mouse L1210 cells allografted in mouse assessed as average survival time at 15 mg/kg, ip relative to untreated control; type: functional; conditions: route intraperitoneal
[13] = tested on: P388; experiment: Antitumor activity against mouse P388 cells allografted in mouse assessed as average survival time at 4.4 mg/kg, ip relative to untreated control; type: functional; conditions: route intraperitoneal
[14] = tested on: Mus musculus; experiment: Toxicity in mouse allografted with mouse P388 cells at 4.4 mg/kg, ip; type: organism-based; set-up: dose 4.4 mg/kg, route intraperitoneal; conditions: in vivo

Row | SMILES | T/C [1] [%] | Activity [2] | Optimal dose [3] [mg/kg] | T/C [6] [%] | T/C [7] [%] | T/C [8] [%] | further results
1 | COc1cccc2c1C(=O)c1c(O)c3c(c(O)c1C2=O)C[C@@](O)(C(C)=O)C[C@@H]3O[C@H]1C[C@H](N)[C@H](OC)[C@H](C)O1 | 156 | Non-toxic | 2.9 | – | – | – | –
2 | COc1cccc2c1C(=O)c1c(O)c3c(c(O)c1C2=O)C[C@@](O)(C(=O)CO)C[C@@H]3O[C@H]1C[C@H](N)[C@H](OC)[C@H](C)O1 | – | – | 6.6 | 62 | 287 | 231 | T/C [4]: 270%; Activity [5]: Non-toxic
3 | COc1cccc2c1C(=O)c1c(O)c3c(c(O)c1C2=O)C[C@@](O)(C(C)=O)C[C@@H]3O[C@H]1C[C@H](N)[C@@H](OC)[C@H](C)O1 | – | – | 20 | – | – | – | T/C [9]: 174%; Activity [10]: Non-toxic
4 | COc1cccc2c1C(=O)c1c(O)c3c(c(O)c1C2=O)C[C@@](O)(C(=O)CO)C[C@@H]3O[C@H]1C[C@H](N)[C@@H](OC)[C@H](C)O1 | – | – | – | 187 | – | 169 | T/C [11]: 87%; T/C [12]: 181%
5 | COc1cccc2c1C(=O)c1c(O)c3c(c(O)c1C2=O)C[C@@](O)(C(C)=O)C[C@@H]3O[C@H]1C[C@H](N)[C@H](O)[C@H](C)O1 [DAUNORUBICIN] | 169 | Non-toxic | 2.9 | – | – | – | –
6 | COc1cccc2c1C(=O)c1c(O)c3c(c(O)c1C2=O)C[C@@](O)(C(=O)CO)C[C@@H]3O[C@H]1C[C@H](N)[C@H](O)[C@H](C)O1 [DOXORUBICIN] | – | – | 4.4 | 187 | 169 | 175 | T/C [13]: 254%; Activity [14]: Non-toxic

Source: ChEMBL document CHEMBL3227963, “Synthesis and antitumor activity of 4'-O-methyldaunorubicin, 4'-O-methyladriamycin, and their 4'-epi analogues” (J Med Chem, 1979)
